The record followed here is US7288566B2, “N-hydroxyformamidine derivatives” (Taisho Pharmaceutical Co., Ltd., priority 2002, dated 2007).

The assay addresses Human Kidney Microsome-derived 20-HETE-producing Enzyme. Put plainly: Inhibitory effect against human kidney microsome-derived 20-HETE-producing enzyme. Format: biochemical. As to conditions: human kidney microsomal fraction, tritium-arachidonic acid substrate, NADPH, 37° C. for 1.5 hours, pH 7.4; read-out: IC50 (50% inhibition of 20-HETE production). As to the method:
Inhibitory Effect Against Human Kidney Microsome-derived 20-HETE-producing Enzyme
The compounds listed in the table above were tested for their inhibitory effect against 20-HETE production.
This test was performed as described in J. Pharmacol. Exp. Ther., vol. 268, p. 474, 1994.
A test drug solution adjusted with DMSO to 1 μM was added to 50 mM 3-morpholinopropanesulfonate (MOPS) buffer (pH 7.4) containing 5 mM magnesium chloride and 1 mM ethylenediaminetetraacetic acid disodium salt (EDTA). The resulting mixture was further supplemented with a human kidney microsomal fraction (Human Cell Culture Center, Anatomic Gift Foundation) as an enzyme source, [5,6,8,9,11,12,14,15]tritium-arachidonic acid as a substrate, and NADPH as a coenzyme, followed by reaction at 37° C. for 1.5 hours. After addition of formic acid to stop the reaction, the reaction mixture was supplemented with acetonitrile (final concentration: 50%). The level of 20-HETE production was measured by high performance liquid chromatography using an ODS column (Biosil C18, BioRad Laboratories) and a radioisotope detector. Assuming that the level of 20-HETE production in the absence of a test compound was set to 100%, the concentration required for the test compound to cause 50% inhibition of 20-HETE production was calculated (IC50 value).

One may read the IC50 as the concentration that inhibits the measured activity by half. Turning to `CN(C)CC(C)(C)CCc1ccc(N/C=N/O)cc1` [Example 1, N-[4-(4-N,N-dimethylamino-3,3-dimethyl-butyl)phenyl]-N′-hydroxyformamidine], the IC50 came to 10.5 nM.
